Article PMC10329973 (Clinical pharmacology in drug development, 2023)
Read-outs that look alike come from different tables or passages of the source.

Assays:
[1] = system: over 40 CNS targets; conditions: cited from earlier work
[2] = system: healthy adult volunteers; assay: Single ascending dose study NP10679-101, safety and tolerability; format: in vivo
[3] = Multiple ascending dose study NP10679-102, plasma pharmacokinetics; format: in vivo; conditions: human, iv; for Cmax / Tmax: MAD; for half-life: T 1/2, MAD
[4] = system: hERG channel; conditions: read-out: IC50, hERG channel; cited from earlier work
[5] = system: CYP3A; conditions: ref unpublished data and Ref 35; cited from earlier work
[6] = system: rats and dogs; assay: Repeat-dose toxicity studies of up to 14 days; format: in vivo; conditions: repeat-dose toxicity studies up to 14 days, dose-limiting effect in both species
[7] = mouse, minimum effective dose 2 mg/kg IP; cited from earlier work
[8] = mouse; cited from earlier work
[9] = In vitro metabolic stability, hepatic microsomes; format: in vitro ADME, mice, rats, dogs, and humans; conditions: mouse, rat, dog, human, liver microsomes
[10] = system: pre-clinical models; conditions: cited from earlier work
[11] = system: murine MCAO model of ischemic brain injury; conditions: cited from earlier work
[12] = Plasma protein binding; format: in vitro ADME, mice, rats, dogs, and humans; conditions: mouse, rat, dog, human
[13] = Single ascending dose study NP10679-101, plasma pharmacokinetics; format: in vivo, human; conditions: for half-life: healthy volunteers, SAD and MAD studies overall; for Vd: SAD
[14] = system: GABAergic receptors; conditions: cited from earlier work
[15] = 25 mg, 25 mg IV once daily, day 1
[16] = 25 mg, 25 mg IV once daily, day 2
[17] = 25 mg, 25 mg IV once daily, day 3
[18] = 25 mg, 25 mg IV once daily, day 4
[19] = 25 mg, 25 mg IV once daily, day 5
[20] = 50 mg, 50 mg IV once daily, day 1
[21] = 50 mg, 50 mg IV once daily, day 2
[22] = 50 mg, 50 mg IV once daily, day 3
[23] = 50 mg, 50 mg IV once daily, day 4
[24] = 50 mg, 50 mg IV once daily, day 5
[25] = 100 mg, 100 mg IV once daily, day 1
[26] = 100 mg, 100 mg IV once daily, day 2
[27] = 100 mg, 100 mg IV once daily, day 3
[28] = 100 mg, 100 mg IV once daily, day 4
[29] = 100 mg, 100 mg IV once daily, day 5

For `O=C1CCc2cc(OC[C@H](O)CN3CCN(c4ccc(C(F)(F)F)cc4)CC3)ccc2N1` [NP10679, (R)-6-(2-Hydroxy-3-(4-(4-(trifluoromethyl)phenyl)piperazin-1-yl)propoxy)-3,4-dihydroquinolin-2(1H)-one], the “activity at over 40 CNS targets” value [1] is given as “lacks demonstrable activity”, the “dissociative symptoms or cognitive impairment (CADSS, DSST)” value ([2]; SAD) is given as “no evidence” and the “serious adverse events (SAEs)” value ([2]; SAD) is given as “No serious adverse events”. For the same compound, the “vital signs or ECGs” value ([2]; SAD) was “no clinically significant changes”, the “changes in mean values of HDRS, MMSE, SBQ-R, GAD-7 and CADSS” value ([2]; SAD study) was “no detectable changes” and the “subjects reaching a level 3 score on the MOAA/S” value ([2]; SAD, 200 mg) was “no subject”. For the same compound, the “subjects with conjunctival and scleral hyperemia” value ([2]; SAD, 200 mg) was 3 of 6, the “subjects presenting with somnolence” value ([2]; SAD, at doses of 50 mg - 200 mg) was 5 of 6 and the “subjects presenting with somnolence” value ([2]; SAD, at each of doses 5 and 15 mg) was “One of 6”. For the same compound, the “blood pressure (both systolic and diastolic)” value ([2]; SAD, highest two doses) was “non-clinically significant lower blood pressure”, the “subjects describing intrusive thoughts” value ([2]; SAD, single 150 mg dose) was “one subject” and the “Bond-Lader VAS scale” value ([2]; SAD, starting at 50 mg through 200 mg) was “moderate increases”. For the same compound, the AUC(0-t) ([3]; 25 mg, AUC 0–24, MAD, 25 mg IV once daily, day 1) was 1470 ± 186 ng·h/mL, the AUC(0-t) ([3]; 25 mg, AUC 0–24, MAD, 25 mg IV once daily, day 2) was 1920 ± 305 ng·h/mL and the AUC(0-t) ([3]; 25 mg, AUC 0–24, MAD, 25 mg IV once daily, day 3) was 2090 ± 303 ng·h/mL. It also gave an AUC(0-t) ([3]; 25 mg, AUC 0–24, MAD, 25 mg IV once daily, day 4) of 2170 ± 397 ng·h/mL, an AUC(0-t) ([3]; 25 mg, AUC 0–24, MAD, 25 mg IV once daily, day 5) of 2260 ± 478 ng·h/mL and an AUC(0-t) ([3]; 25 mg, AUC 0–96, MAD, 25 mg IV once daily, day 5) of 3880 ± 1140 ng·h/mL. For the same compound, the Cmax [3, 15] was 208 ± 72 ng/mL, the Cmax [3, 16] was 211 ± 57 ng/mL and the Cmax [3, 17] was 207 ± 35 ng/mL. For the same compound, the Cmax [3, 18] was 250 ± 34 ng/mL, the Cmax [3, 19] was 213 ± 26 ng/mL and the half-life [3, 15] was 900 ± 180 min. The half-life [3, 16] was 1020 ± 120 min, the half-life [3, 17] was 960 ± 180 min and the half-life [3, 18] was 1140 ± 300 min. It also gave a half-life [3, 19] of 2160 ± 900 min, a Tmax [3, 15] of 30 min and a Tmax [3, 16] of 54 ± 48 min. For the same compound, the Tmax [3, 17] was 48 ± 24 min, the Tmax [3, 18] was 30 min and the Tmax [3, 19] was 30 min. The AUC(0-t) ([3]; 50 mg, AUC 0–24, MAD, 50 mg IV once daily, day 1) was 2650 ± 283 ng·h/mL, the AUC(0-t) ([3]; 50 mg, AUC 0–24, MAD, 50 mg IV once daily, day 2) was 3300 ± 479 ng·h/mL and the AUC(0-t) ([3]; 50 mg, AUC 0–24, MAD, 50 mg IV once daily, day 3) was 3890 ± 424 ng·h/mL. For the same compound, the AUC(0-t) ([3]; 50 mg, AUC 0–24, MAD, 50 mg IV once daily, day 4) was 4110 ± 485 ng·h/mL, the AUC(0-t) ([3]; 50 mg, AUC 0–24, MAD, 50 mg IV once daily, day 5) was 4290 ± 500 ng·h/mL and the AUC(0-t) ([3]; 50 mg, AUC 0–96, MAD, 50 mg IV once daily, day 5) was 6960 ± 1170 ng·h/mL. It also gave a Cmax [3, 20] of 376 ± 99 ng/mL, a Cmax [3, 21] of 276 ± 60 ng/mL and a Cmax [3, 22] of 335 ± 73 ng/mL. For the same compound, the Cmax [3, 23] was 389 ± 116 ng/mL, the Cmax [3, 24] was 394 ± 72 ng/mL and the half-life [3, 20] was 1080 ± 240 min. It also gave a half-life [3, 21] of 1080 ± 180 min, a half-life [3, 22] of 1560 ± 960 min and a half-life [3, 23] of 960 ± 60 min. For the same compound, the half-life [3, 24] was 1260 ± 180 min, the Tmax [3, 20] was 48 ± 48 min and the Tmax [3, 21] was 60 ± 24 min. It also gave a Tmax [3, 22] of 48 ± 30 min, a Tmax [3, 23] of 48 ± 30 min and a Tmax [3, 24] of 42 ± 24 min. The AUC(0-t) ([3]; 100 mg, AUC 0–24, MAD, 100 mg IV once daily, day 1) was 5630 ± 625 ng·h/mL, the AUC(0-t) ([3]; 100 mg, AUC 0–24, MAD, 100 mg IV once daily, day 2) was 7320 ± 279 ng·h/mL and the AUC(0-t) ([3]; 100 mg, AUC 0–24, MAD, 100 mg IV once daily, day 3) was 8710 ± 458 ng·h/mL. It also gave an AUC(0-t) ([3]; 100 mg, AUC 0–24, MAD, 100 mg IV once daily, day 4) of 9510 ± 1200 ng·h/mL, an AUC(0-t) ([3]; 100 mg, AUC 0–24, MAD, 100 mg IV once daily, day 5) of 8980 ± 376 ng·h/mL and an AUC(0-t) ([3]; 100 mg, AUC 0–96, MAD, 100 mg IV once daily, day 5) of 13900 ± 962 ng·h/mL. For the same compound, the Cmax [3, 25] was 1240 ± 1150 ng/mL, the Cmax [3, 26] was 570 ± 29 ng/mL and the Cmax [3, 27] was 812 ± 190 ng/mL. The Cmax [3, 28] was 873 ± 236 ng/mL, the Cmax [3, 29] was 1080 ± 295 ng/mL and the half-life [3, 25] was 1320 ± 300 min. For the same compound, the half-life [3, 26] was 1320 ± 300 min, the half-life [3, 27] was 1320 ± 300 min and the half-life [3, 28] was 2040 ± 1680 min. For the same compound, the half-life [3, 29] was 780 ± 300 min, the Tmax [3, 25] was 30 min and the Tmax [3, 26] was 48 ± 18 min. The Tmax [3, 27] was 30 min, the Tmax [3, 28] was 36 ± 18 min and the Tmax [3, 29] was 30 min. The IC50 [4] was 620 nM, the “time-dependent inhibition of CYP3A” value [5] was “does not lead to significant time-dependent inhibition” and the “adverse effect directly related to IV administration” value [6] was “sedation”. For the same compound, the AUC(0-inf) [7] was 5690 ng·h/mL, the Cmax [7] was 581 ng/mL and the “oral availability F%” value [8] was 76%. For the same compound, the half-life [9] was over 120 min, the “somnolence in pre-clinical models” value [10] was “leads to somnolence at doses above those necessary to achieve efficacy” and the “minimum effective dose in the MCAO model” value ([11]; IP, mouse) was 2 mg/kg. For the same compound, the infarct volume ([11]; administered 15 minutes prior to occlusion) was “effective in reducing infarct volume”, the fraction unbound [12] was 0.01 to 0.026 and the half-life [13] was ~ 20 h. The clearance ([13]; human, plasma, intravenous) was 163 to 200 mL/min, the half-life ([13]; human, plasma, intravenous, half-life) was 1200 min and the Vd ([13]; human, plasma, intravenous, volume of distribution) was over 221 L. For the same compound, the AUC(0-inf) ([13]; human, plasma, iv, 5 mg) was 553 ± 204 ng·h/mL, the AUC(0-t) ([13]; human, plasma, iv, 5 mg) was 335 ± 46 ng·h/mL and the Cmax ([13]; human, plasma, iv, 5 mg) was 27 ± 15 ng/mL. It also gave a clearance ([13]; human, plasma, iv, 5 mg) of 163 mL/min, a Vd ([13]; human, plasma, iv, 5 mg, VSS, single IV infusion 5 mg, mean ± SD) of 435 ± 178 L and a Vd ([13]; human, plasma, iv, 5 mg, Vd, area, mean, single IV infusion 5 mg) of 396 L. The AUC(0-inf) ([13]; human, plasma, iv, 15 mg) was 1280 ± 227 ng·h/mL, the AUC(0-t) ([13]; human, plasma, iv, 15 mg) was 1140 ± 233 ng·h/mL and the Cmax ([13]; human, plasma, iv, 15 mg) was 99 ± 67 ng/mL. It also gave a clearance ([13]; human, plasma, iv, 15 mg) of 200 mL/min, a Vd ([13]; human, plasma, iv, 15 mg, VSS, single IV infusion 15 mg, mean ± SD) of 306 ± 41 L and a Vd ([13]; human, plasma, iv, 15 mg, Vd, area, mean, single IV infusion 15 mg) of 346 L. For the same compound, the AUC(0-inf) ([13]; human, plasma, iv, 50 mg) was 4680 ± 797 ng·h/mL, the AUC(0-t) ([13]; human, plasma, iv, 50 mg) was 3980 ± 544 ng·h/mL and the Cmax ([13]; human, plasma, iv, 50 mg) was 415 ± 107 ng/mL. It also gave a clearance ([13]; human, plasma, iv, 50 mg) of 183 mL/min, a Vd ([13]; human, plasma, iv, 50 mg, VSS, single IV infusion 50 mg, mean ± SD) of 255 ± 20 L and a Vd ([13]; human, plasma, iv, 50 mg, Vd, area, mean, single IV infusion 50 mg) of 286 L. The AUC(0-inf) ([13]; human, plasma, iv, 100 mg) was 9860 ± 3220 ng·h/mL, the AUC(0-t) ([13]; human, plasma, iv, 100 mg) was 9370 ± 3090 ng·h/mL and the Cmax ([13]; human, plasma, iv, 100 mg) was 746 ± 223 ng/mL. It also gave a clearance ([13]; human, plasma, iv, 100 mg) of 183 mL/min, a Vd ([13]; human, plasma, iv, 100 mg, VSS, single IV infusion 100 mg, mean ± SD) of 259 ± 57 L and a Vd ([13]; human, plasma, iv, 100 mg, Vd, area, mean, single IV infusion 100 mg) of 317 L. For the same compound, the AUC(0-inf) ([13]; human, plasma, iv, 150 mg) was 13900 ± 1280 ng·h/mL, the AUC(0-t) ([13]; human, plasma, iv, 150 mg) was 13600 ± 1220 ng·h/mL and the Cmax ([13]; human, plasma, iv, 150 mg) was 954 ± 370 ng/mL. The clearance ([13]; human, plasma, iv, 150 mg) was 183 mL/min, the Vd ([13]; human, plasma, iv, 150 mg, VSS, single IV infusion 150 mg, mean ± SD) was 250 ± 23 L and the Vd ([13]; human, plasma, iv, 150 mg, Vd, area, mean, single IV infusion 150 mg) was 286 L. For the same compound, the AUC(0-inf) ([13]; human, plasma, iv, 200 mg) was 20200 ± 4600 ng·h/mL, the AUC(0-t) ([13]; human, plasma, iv, 200 mg) was 19700 ± 4370 ng·h/mL and the Cmax ([13]; human, plasma, iv, 200 mg) was 2070 ± 798 ng/mL. The clearance ([13]; human, plasma, iv, 200 mg) was 167 mL/min, the Vd ([13]; human, plasma, iv, 200 mg, VSS, single IV infusion 200 mg, mean ± SD) was 221 ± 34 L and the Vd ([13]; human, plasma, iv, 200 mg, Vd, area, mean, single IV infusion 200 mg) was 245 L. For the same compound, the “activity at GABAergic receptors” value [14] was “does not have activity”.
